# Reference: patent US20240382495A1, “COMBINATIONS OF COPANLISIB WITH ANTI-PD-1 ANTIBODY” (BAYER PHARMA AKTIENGESELLSCHAFT, priority 2023, published 2024)
# Where a name gives a salt, the structure may show the parent alone.
# Tests used:
# [1] = system: A20 diffuse large B cell lymphoma; assay: Anti-tumor efficacy in DLBCL syngeneic A20 mouse model; assay type: in vivo; details: monotherapy; Cpd A 14 mg/kg, Cpd B 200 μg/mouse, intravenously; vs vehicle control group
# Experimental: (§1) Experimental Methods A20 diffuse large B cell lymphoma and CT26 colorectal cancer cells were maintained in vitro in cell cultural medium supplemented with serum (according to the instructions for each corresponding cell lines) at 37° C. in an atmosphere of 5% CO2 in air. The tumor cells were routinely subcultured twice weekly. The cells in an exponential growth phase were harvested and counted for tumor inoculation. To investigate anti-tumor efficacy and mechanisms of action in vivo, each mouse was inoculated subcutaneously at the right lower flank region with tumor cells (1×10^5-2×10^6 depending on the cell lines) in 0.1 ml of PBS with or without metrigel for tumor development. Before commencement of treatment, all animals were weighed and the tumor volumes were measured using a caliper. […]
# (§2) Tumor volumes were measured 2-3 times weekly in two dimensions using a caliper, and the volume was expressed in mm^3 using the formula: V=0.5 a x b2 where a and b are the long and short diameters of the tumor, respectively. Tumor weight was measured at study termination. […]
# The anti-tumor activity of Compound A and Compound B was assessed firstly in an immune-checkpoint blocker resistant DLBCL syngeneic A20 xenograft mouse model as single agent and in combination. […] Body weights and tumor size were measured three times per week. […] The tolerability was assessed by body weight change. […]
# [2] = system: regulatory T cells (Treg); assay: Analysis of Treg and CD8+ T cells in tumor, spleen and thymus of A20 model; assay type: in vivo, mouse
# Experimental: Sampling procedures: organ and tumor tissues were quickly removed and weighted 3h post the final dose for FACS, IHC (FFPE), and RNA/pretein expression analysis.
# The anti-tumor activity of Compound A and Compound B was assessed firstly in an immune-checkpoint blocker resistant DLBCL syngeneic A20 xenograft mouse model as single agent and in combination. A20 cells were inoculated subcutaneously at the right flank of female BALB/c mice for tumor development. The treatment was started when the average tumor size reached about 116 mm^3. Mice were allocated randomly into experimental groups according to their tumor sizes and being treated from day 12 after tumor cell inoculation. Cpd A was dosed at 14 mg/kg and Cpd B at 200 μg/mouse intravenously with the schedule indicated in FIG. 1 A. Treatment groups were: control antibody (ctrl Ab), vehicle control (vehicle), compound A monotherapy (Cpd. A), Cpd. B monotherapy, 3 combination groups with different dosing schedules. Body weights and tumor size were measured three times per week. Tumor growth curve (FIG. 1B), tumor weight at the end of treatment (FIG. 1C) and tumor response (FIG. 1D) were used as anti-tumor activity endpoints. The tolerability was assessed by body weight change. […]
# [3] = system: CT26 colorectal cancer; assay: Anti-tumor efficacy in syngeneic CT26 colorectal cancer mouse model; assay type: in vivo; details: CT26 (KRASmut, non-MSIhigh) model, monotherapy
# Experimental: as §1, §2
# Therefore, the anti-tumor activity of Compound A and Compound B was assessed in the mouse syngeneic CT26 (KRASmut, non-MSIhig^h) colorectal cancer xenograft model as single agent and in combination. […]
structure (smiles),measurement,setting,value
"COc1c(OCCCN2CCOCC2)ccc2c1N=C(NC(=O)c1cnc(N)nc1)N1CCN=C21 [Cpd A, 2-amino-N-[7-methoxy-8-(3-morpholin-4-ylpropoxy)-2,3-dihydroimid-azo[1,2-c]quinazolin-5-yl]pyrimidine-5-carboxamide dihydrochloride]",relative tumor growth inhibition (TGI %),[1],78%
same,effect on Treg in thymus and spleen,"[2]; A20 model, thymus and spleen",minimal or no effects
same,effect on Treg population in tumors,"[2]; A20 tumors, Treg among CD4+ T cells",specifically reduce the Treg population in tumors
same,TGI,[3],71%
